In one experiment the target is T1, 15-hydroxyprostaglandin dehydrogenase [NAD(+)] (Homo sapiens, UniProt P15428).
T1 sequence (P15428 whole entry): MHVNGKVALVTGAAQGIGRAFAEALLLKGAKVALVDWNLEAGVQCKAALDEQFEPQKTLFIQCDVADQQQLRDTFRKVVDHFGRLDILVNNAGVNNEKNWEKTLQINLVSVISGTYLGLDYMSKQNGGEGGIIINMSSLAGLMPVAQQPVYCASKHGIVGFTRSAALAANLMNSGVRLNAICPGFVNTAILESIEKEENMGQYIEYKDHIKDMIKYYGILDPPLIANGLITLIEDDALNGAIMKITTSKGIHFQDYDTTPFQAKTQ
Nature of the experiment: In vitro Assay (5 nM).
Experimental: Each compound for inhibiting enzymatic activity of recombinant 15-PGDH (5 nM) in an in vitro assay.
As for `CCCC[S+]([O-])c1sc2nc(-c3nccs3)cc(-c3cnccn3)c2c1N` (stereo unspecified) [US20240043440, Example 1], the IC50 is 2.7 nM.

The molecule `CCCC[S+]([O-])c1sc2nc(-c3nccs3)cc(-c3ncccn3)c2c1N` (stereo unspecified) [US20240043440, Example 8] gave an IC50 of 2.6 nM. This IC50 and that of the molecule before are within 1.5-fold of each other.

In the case of `CCCC[S+]([O-])c1sc2nc(-c3cccs3)cc(-c3ccccc3)c2c1C` (stereo unspecified) [US20240043440, Example 10], half-maximal inhibition (IC50) was put at 7.1 nM.

Consider `CCCC[S+]([O-])c1cc2c(-c3ccccc3)cc(-c3cccs3)nc2s1` (stereo unspecified) [US20240043440, Example 11], for which the IC50 was 24.7 nM.

`CCCC[S+]([O-])c1sc2nc(-c3nccs3)nc(-c3cnc(C)n3C)c2c1N` (stereo unspecified) [US20240043440, Example 15] returned an IC50 of 3.7 nM.

Another experiment concerns the target T1, 15-hydroxyprostaglandin dehydrogenase [NAD(+)]. Nature of the experiment: In vitro Assay (1 nM). The method, then:
Each compound for inhibiting enzymatic activity of recombinant 15-PGDH (1 nM) in an in vitro assay.
The molecule `CCOCC[S+]([O-])c1sc2nc(-c3nccs3)cc(-c3cncn3C)c2c1N` (stereo unspecified) [US20240043440, Example 31] returned an IC50 of 1.8 nM.

In the case of `Cn1cncc1-c1cc(-c2nccs2)nc2sc([S+]([O-])C3CCCC3)c(N)c12` (stereo unspecified) [US20240043440, Example 32], the IC50 was 1.6 nM.

On to `Cn1cncc1-c1cc(-c2nccs2)nc2sc([S+]([O-])C3CCCCC3)c(N)c12` (stereo unspecified) [US20240043440, Example 33], for which the IC50 was found to be 1.6 nM. This counts as single-digit nanomolar.

For `CCOCC[S+]([O-])c1sc2nc(-c3nccs3)cc(-c3cnc(C)n3C)c2c1N` (stereo unspecified) [US20240043440, Example 34], the IC50 turned out to be 3.1 nM.

The molecule `Cc1ncc(-c2cc(-c3nccs3)nc3sc([S+]([O-])CC(C)C)c(N)c23)n1C` (stereo unspecified) [US20240043440, Example 35] gave an IC50 of 3.6 nM.

With `COCC[S+]([O-])c1sc2nc(-c3nccs3)cc(-c3cncn3C)c2c1N` (stereo unspecified) [US20240043440, Example 36], the midpoint of inhibition, the IC50, lay at 1.5 nM.

For the molecule `COCCC[S+]([O-])c1sc2nc(-c3nccs3)cc(-c3cncn3C)c2c1N` (stereo unspecified) [US20240043440, Example 37], the IC50 worked out at 1.8 nM.

Take `CCCC[S+]([O-])c1sc2nc(-c3cccnc3)cc(-c3cnc(C)n3C)c2c1N` (stereo unspecified) [US20240043440, Example 38]: the IC50 worked out at 1.4 nM.

On to `CCCC[S+]([O-])c1sc2nc(-c3cncnc3)cc(-c3cnc(C)n3C)c2c1N` (stereo unspecified) [US20240043440, Example 39], for which the IC50 came to 1.2 nM.

Consider `CCCC[S+]([O-])c1sc2nc(-c3ccccn3)cc(-c3cnc(C)n3C)c2c1N` (stereo unspecified) [US20240043440, Example 40], for which the midpoint of inhibition, the IC50, lay at 2.4 nM. This IC50 is about 2-fold higher than that of the molecule before.

The molecule `CCCC[S+]([O-])c1sc2nc(-c3cccnc3)cc(-c3cncn3C)c2c1N` (stereo unspecified) [US20240043440, Example 43] yielded an IC50 of 1.1 nM.

`CCCC[S+]([O-])c1sc2nc(-c3ncccn3)cc(-c3ccccc3)c2c1N` (stereo unspecified) [US20240043440, Example 44] showed an IC50 of 1.7 nM.

For the molecule `CCCC[S+]([O-])c1sc2nc(-c3ncccc3F)cc(-c3cnc(C)n3C)c2c1N` (stereo unspecified) [US20240043440, Example 45], 2.2 nM corresponded to half-maximal inhibition (IC50).

`CCCC[S+]([O-])c1sc2nc(-c3ccncn3)cc(-c3ccccc3)c2c1N` (stereo unspecified) [US20240043440, Example 47] had an IC50 of 1.1 nM.

The molecule `COCC[S+]([O-])c1sc2nc(-c3cccnc3)cc(-c3cncn3C)c2c1N` (stereo unspecified) [US20240043440, Example 49] gave an IC50 of 1.8 nM.

For `COCCC[S+]([O-])c1sc2nc(-c3cccnc3)cc(-c3cncn3C)c2c1N` (stereo unspecified) [US20240043440, Example 50], the IC50 turned out to be 1.4 nM.

Molecule `CCCC[S+]([O-])c1sc2nc(-c3cccnc3)cc(-c3nccs3)c2c1N` (stereo unspecified) [US20240043440, Example 51] showed an IC50 of 1 nM.

In turn, `CCCC[S+]([O-])c1sc2nc(-c3cncnc3)cc(-c3cnc(C4CC4)n3C)c2c1N` (stereo unspecified) [US20240043440, Example 53] registered an IC50 of 2.6 nM.

Molecule `CCCC[S+]([O-])c1sc2nc(-c3cccnc3)cc(-c3cccnc3)c2c1N` (stereo unspecified) [US20240043440, Example 54] displayed an IC50 of 0.82 nM.

`CCCC[S+]([O-])c1sc2nc(-c3cccnc3)cc(-c3ccccc3F)c2c1N` (stereo unspecified) [US20240043440, Example 55] registered an IC50 of 1 nM.

In turn, `CCCC[S+]([O-])c1sc2nc(-c3cnccc3C)cc(-c3cnc(C)n3C)c2c1N` (stereo unspecified) [US20240043440, Example 56] registered an IC50 of 2.2 nM.

Consider `CCCC[S+]([O-])c1sc2nc(-c3cccnc3)cc(-c3cccc(C#N)c3)c2c1N` (stereo unspecified) [US20240043440, Example 57], for which the IC50 is 1.1 nM.

For the molecule `CCCC[S+]([O-])c1sc2nc(-c3cccnc3)cc(-c3ccccn3)c2c1N` (stereo unspecified) [US20240043440, Example 58], half-maximal inhibition (IC50) was put at 1.2 nM.

In the case of `CCCC[S+]([O-])c1sc2nc(-c3cccnc3)cc(-c3ccc(C#N)cc3)c2c1N` (stereo unspecified) [US20240043440, Example 59], the IC50 turned out to be 0.91 nM. The IC50 values of the last two molecules are within 1.5-fold of each other.

`CCCC[S+]([O-])c1sc2nc(-c3cnc(NC)nc3)cc(-c3ccccc3)c2c1N` (stereo unspecified) [US20240043440, Example 60] yielded an IC50 of 1.4 nM.

In turn, `CCCC[S+]([O-])c1sc2nc(-c3cnc(N)nc3)cc(-c3ccc(F)cc3)c2c1N` (stereo unspecified) [US20240043440, Example 61] gave an IC50 of 1.1 nM.

`CCCC[S+]([O-])c1sc2nc(-c3ccc(N)nc3)cc(-c3ccccc3)c2c1N` (stereo unspecified) [US20240043440, Example 62] registered an IC50 of 1.5 nM. The IC50 values of the last two molecules are within 1.5-fold of each other.

The molecule `CCCC[S+]([O-])c1sc2nc(-c3cnc(N(C)C)nc3)cc(-c3ccccc3)c2c1N` (stereo unspecified) [US20240043440, Example 63] registered an IC50 of 1.7 nM.

`COCCC[S+]([O-])c1sc2nc(-c3cnc(N)nc3)cc(-c3ccccc3)c2c1N` (stereo unspecified) [US20240043440, Example 65] returned an IC50 of 1.1 nM.

`COCCC[S+]([O-])c1sc2nc(-c3cnn(C)c3)cc(-c3ccccc3)c2c1N` (stereo unspecified) [US20240043440, Example 66]: the midpoint of inhibition, the IC50, lay at 1.4 nM.

Regarding `CCCC[S+]([O-])c1sc2nc(-c3cnc(N)nc3)cc(-c3nccs3)c2c1N` (stereo unspecified) [US20240043440, Example 69], 1.1 nM corresponded to half-maximal inhibition (IC50).

`COCCC[S+]([O-])c1sc2nc(-c3cnco3)cc(-c3ccccc3)c2c1N` (stereo unspecified) [US20240043440, Example 70]: it took 0.88 nM to reach half-maximal inhibition (IC50). This IC50 and that of the molecule before are within 1.5-fold of each other.

In turn, `CCCC[S+]([O-])c1sc2nc(-c3cccnc3)cc(-c3ccncc3)c2c1N` (stereo unspecified) [US20240043440, Example 71] registered an IC50 of 0.98 nM. The IC50 values of the last two molecules are within 1.5-fold of each other.

`CCCC[S+]([O-])c1sc2nc(-c3cnc(N)nc3)cc(-c3cnc(C)n3C)c2c1N` (stereo unspecified) [US20240043440, Example 72] registered an IC50 of 0.93 nM.

Molecule `CCCC[S+]([O-])c1sc2nc(-c3cccnc3)cc(-c3ncsc3C)c2c1N` (stereo unspecified) [US20240043440, Example 73] showed an IC50 of 1 nM.

Regarding `CCCC[S+]([O-])c1sc2nc(-c3cccnc3)nc(-c3ccccc3)c2c1N` (stereo unspecified) [US20240043440, Example 74], 1.2 nM corresponded to half-maximal inhibition (IC50).

On to `CCCC[S+]([O-])c1sc2nc(-c3cnn(C)c3)cnc2c1N` (stereo unspecified) [US20240043440, Example 75], for which the IC50 worked out at 2.8 nM.

Take `CCCC[S+]([O-])c1sc2nc(-c3ccccn3)nc(-c3ccccc3)c2c1N` (stereo unspecified) [US20240043440, Example 76]: the concentration for half-maximal inhibition (IC50) was determined as 3.6 nM.

In turn, `CCCC[S+]([O-])c1sc2nc(-c3nccs3)nc(-c3nccn3C)c2c1N` (stereo unspecified) [US20240043440, Example 77] returned an IC50 of 1.8 nM.

Molecule `COCCC[S@@+]([O-])c1sc2nc(-c3cccnc3)nc(-c3ccccc3)c2c1N` [US20240043440, Example 78-A] returned an IC50 of 1 nM.

On to `COCCC[S+]([O-])c1sc2nc(-c3cccnc3)nc(-c3ccccc3)c2c1N` (stereo unspecified) [US20240043440, Example 78], for which half-maximal inhibition (IC50) was put at 1.4 nM.

For the molecule `COCC[S@@+]([O-])c1sc2nc(-c3cccnc3)nc(-c3ccccc3)c2c1N` [US20240043440, Example 79-A], it took 1 nM to reach half-maximal inhibition (IC50).

The molecule `COCC[S+]([O-])c1sc2nc(-c3cccnc3)nc(-c3ccccc3)c2c1N` (stereo unspecified) [US20240043440, Example 79] returned an IC50 of 1.5 nM.

For `CCCC[S+]([O-])c1sc2nc(-c3ncccn3)nc(-c3ccccc3)c2c1N` (stereo unspecified) [US20240043440, Example 80], 12 nM corresponded to half-maximal inhibition (IC50).

`CCCC[S+]([O-])c1sc2nc(-c3cccnc3)nc(-c3cscn3)c2c1N` (stereo unspecified) [US20240043440, Example 81]: the IC50 worked out at 0.76 nM.

`CCCC[S+]([O-])c1sc2nc(-c3cccnc3)nc(-c3nccs3)c2c1N` (stereo unspecified) [US20240043440, Example 82]: it took 1 nM to reach half-maximal inhibition (IC50).

Consider `CCCC[S+]([O-])c1sc2nc(-c3cncnc3)nc(-c3ccccc3)c2c1N` (stereo unspecified) [US20240043440, Example 83], for which the IC50 was found to be 1.3 nM. This IC50 and that of the molecule before are within 1.5-fold of each other.

Take `CCCC[S+]([O-])c1sc2nc(-c3cccnc3)nc(-c3cncn3C)c2c1N` (stereo unspecified) [US20240043440, Example 84]: the IC50 was determined as 1.2 nM.

The molecule `CCCC[S+]([O-])c1sc2nc(-c3cccnc3)nc(-c3cn(C)cn3)c2c1N` (stereo unspecified) [US20240043440, Example 85] displayed an IC50 of 1.3 nM. The IC50 values of the last two molecules are within 1.5-fold of each other.

For `CCCC[S@@+]([O-])c1sc2nc(-c3cccnc3)nc(-c3nccn3C)c2c1N` [US20240043440, Example 86A], the IC50 is 0.56 nM.

On to `CCCC[S@+]([O-])c1sc2nc(-c3cccnc3)nc(-c3nccn3C)c2c1N` [US20240043440, Example 86B], for which the IC50 was determined as 41 nM.

`CCCC[S+]([O-])c1sc2nc(-c3cccnc3)nc(-c3nccn3C)c2c1N` (stereo unspecified) [US20240043440, Example 86]: half-maximal inhibition (IC50) was put at 1.1 nM.

For the molecule `COCCC[S@@+]([O-])c1sc2nc(-c3cccnc3)nc(-c3ccc(F)cc3)c2c1N` [US20240043440, Example 87A], the IC50 was found to be 1.3 nM.

`COCCC[S+]([O-])c1sc2nc(-c3cccnc3)cc(-c3cn(C)cn3)c2c1N` (stereo unspecified) [US20240043440, Example 89] came in with an IC50 of 1.3 nM. This counts as single-digit nanomolar.

In turn, `COCCC[S+]([O-])c1sc2nc(-c3ccc(N)nc3)cc(-c3cccnc3)c2c1N` (stereo unspecified) [US20240043440, Example 90] yielded a half-inhibitory concentration (IC50) of 2.5 nM.

In turn, `COCC[S+]([O-])c1sc2nc(-c3ccc(C4COC4)nc3)cc(-c3ccc(F)cc3)c2c1N` (stereo unspecified) [US20240043440, Example 91] yielded an IC50 of 2.4 nM. This IC50 and that of the molecule before are within 1.5-fold of each other.

One may read the IC50 as the midpoint of a concentration-inhibition curve. A low value points to higher potency.
